Measurements from patent publication US9192597B2, “Composition for inhibiting vascular aging comprising syringaresinol” (AMOREPACIFIC CORPORATION, priority 2011, dated 2015).

Experiments:
[1] = tested on: PAI-1; experiment: PAI-1 protein expression in aged vascular endothelial cells (Western blot); format: cell-based, human; conditions: 50 μM, vs DMSO and young cells, FIG. 6
Protocol: (§1) In order to evaluate whether syringaresinol can restore the declined function of aged vascular cells to that of young vascular cells, the aging of vascular endothelial cells was induced by treating with 50 μM syringaresinol or DMSO as control in substantially the same manner as in Test Example 1. […] As a result, cardiovascular diseases such as arteriosclerosis can occur easily. The cells treated with syringaresinol or DMSO were washed with PBS and lysed with lysis buffer (Sigma), and the supernatant was recovered. Then, protein present in the supernatant was quantitated using Protein Dye Reagent™ (Bio-Rad). 100 μg of the obtained protein was fractionated by size by electrophoresing on 8% SDS-PAGE and transferred onto PVDF membrane (Bio-Rad) for 12 hours with 50 V. Then, the membrane was blocked for 1 hour with 5% non-fat milk and treated with anti-eNOS, anti-PAI-1 and anti-actin antibodies, as primary antibodies, and horse radish peroxidase (HRP)-conjugated anti-rabbit IgG (Amersham) as secondary antibody, and reacted using the enhanced chemiluminescence (ECL) kit (Amersham). The reacted PVDF membrane exposed to X-ray Fuji film and developed to investigate the protein expression level.

[2] = tested on: eNOS; experiment: eNOS protein expression in aged vascular endothelial cells (Western blot); format: cell-based, human; conditions: 50 μM, vs DMSO and young cells, FIG. 6
Protocol: as §1

[3] = tested on: aged vascular endothelial cells (SA-β-gal); experiment: Aging marker SA-β-gal staining in aged vascular endothelial cells (Cellular Senescence Assay kit); format: cell-based, human; conditions: 50 μM, compared to cells treated only with DMSO
Protocol: The aging of vascular endothelial cells was induced by treating with 50 μM syringaresinol in substantially the same manner as in Test Example 1. The aged cells were washed with PBS and stained at 37° C. for 16 hours using a fixative and a stain provided together with the Cellular Senescence Assay kit (Cell Biolabs, Inc., San Diego, Calif., USA). Next day, the cells were washed with PBS, overlaid with 20% glycerol solution and observed under a microscope. The number of the cells stained green was counted and the activity of the aging marker SA-β-gal was determined.

[4] = tested on: telomerase; experiment: Telomerase activity in aged vascular endothelial cells (TeloTAGGG telomerase PCR ELISA Plus kit); format: cell-based, human; conditions: 50 μM, compared to cells treated only with DMSO, FIG. 5
Protocol: The aging of vascular endothelial cells was induced by treating with 50 μM syringaresinol or DMSO as control in substantially the same manner as in Test Example 1. The aged cells were washed with PBS and lysed using lysis buffer (Sigma), and the obtained protein was quantitated. Telomerase activity was evaluated using the TeloTAGGG telomerase PCR ELISA Plus kit (Roche Applied Science, Indianapolis, Ind., USA).

[5] = tested on: SIRT1 gene; experiment: SIRT1 gene expression promoting effect in aged human vascular endothelial cells (RT-PCR); format: cell-based; conditions: aged human vascular endothelial cells (14 PDL to 40 PDL), 20, 50 or 100 μM every other day, vs DMSO; FIG. 2
Protocol: The SIRT1 gene expression promoting effect of syringaresinol in aged human vascular endothelial cells was evaluated as follows.
Human vascular endothelial cells purchased from Lonza (Walkersville, Md., USA) were cultured using the endothelial cell growth medium EGM-2 SingleQuots (Lonza) in a 5% CO2 incubator until 70% confluency. […] The population doubling level (PDL) was calculated according to the following equation for each generation until the cell growth was stopped. The PDL value is higher in aged cells. PDL=(Log10 Y−Log10 X)/Log10 2
Y: number of cells at the end of the generation
X: number of cells at the beginning of the generation
14 PDL cells were treated with syringaresinol dissolved in DMSO at a concentration of 20, 50 or 100 μM every other day while inducing aging to 40 PDL cells. The cells of a negative control group were treated with DMSO of 1/1000 of the volume of the medium. The cells treated with each sample were washed 2 times with cold PBS and RNA was extracted using TRIzol reagent (Invitrogen). cDNA was synthesized from the extracted RNA (1 μg/μL) using a reverse transcription system (Promega). Subsequently, the expression pattern of the SIRT1 and GAPDH genes was measured using the synthesized cDNA and predesigned primers and probes (Applied Biosystems; SIRT1, Hs01009006_m1; GAPDH, Hs99999905_m1). […]

COc1cc(C2OCC3C(c4cc(OC)c(O)c(OC)c4)OCC23)cc(OC)c1O (stereo not drawn) [syringaresinol]
PAI-1 expression [1]: decreased PAI-1 expression comparable to that of young cells
eNOS expression [2]: increased eNOS expression comparable to that of young cells
number of green-stained (SA-β-gal) cells ([3]; FIG. 3 and 4): remarkably smaller number of green-stained cells
decrease of SA-β-gal activity ([3]; FIG. 4): ~50%
increase of telomerase activity [4]: about 30%
SIRT1 gene expression [5]: increases the decreased SIRT1 expression in aged vascular endothelial cells in a concentration-dependent manner
